In patent US20260078120A1, “SUBSTITUTED PYRIDOPYRIMIDINONES” (MIRATI THERAPEUTICS, INC., priority 2022, published 2026):
Where two headings read alike, the source gives them in different places.

How the values were obtained:
[1] = test system: T47D (PI3Kα H1047R mutant) cells; experiment: CellTiter-Glo 2.0 luminescent cell viability assay, 72 hours, T47D cells; format: cell-based; conditions: T47D (PI3Kα H1047R mutant) cells, CellTiter-Glo, approximately 72 hours, read-out: T47D (H1047R mutant) Viability IC50
Summary of the method: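 Cells seeded at 1000 per well overnight were dosed with a 10-concentration, 1:4 series starting at 10 µM and incubated ~72 h at 37° C. Viability was read by CellTiter-Glo 2.0 luminescence after 30 min at room temperature. IC50 came from four-parameter fits of percent vehicle control.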

[2] = test system: SKBR3 (PI3Kα wild type) cells; experiment: CellTiter-Glo 2.0 luminescent cell viability assay, 72 hours, SKBR3 cells; format: cell-based; conditions: SKBR3 (PI3Kα wild type) cells, CellTiter-Glo, approximately 72 hours, read-out: SKBR3 (WT) Viability IC50
Summary of the method: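 Viability measured via CTG luminescence following roughly 72 hours of compound exposure at 37° C. Dosing used a 10 um starting concentration diluted 1:4 over 10 points; percent-of-vehicle data fitted with a variable-slope four-parameter model for IC50.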

| Compound | IC50 ([1]; Homo sapiens, T47D, 72 h) [nM] | IC50 ([2]; Homo sapiens, SK-BR-3, 72 h) [µM] | IC50 [1] [nM] | IC50 [2] [µM] |
| --- | --- | --- | --- | --- |
| Cc1cc([C@@H](C)Nc2ccccc2C(=O)O)c2nc(N3CC4CC(F)(F)CC4C3)c(C)c(=O)n2c1 (stereo partly drawn) [Example 11-444, 2-(((1R)-1-(2-(5,5-difluorohexahydrocyclopenta[c]pyrrol-2(1H)-yl)-3,7-dimethyl-4-oxo-4H-pyrido[1,2-a]pyrimidin-9-yl)ethyl)amino)benzoic acid] | 234 | > 10 | – | – |
| Cc1cc([C@@H](C)Nc2ccccc2C(=O)O)c2nc(N[C@H](C)C3CC3)c(C)c(=O)n2c1 [Example 11-167, 2-(((R)-1-(2-(((R)-1-cyclopropylethyl)amino)-3,7-dimethyl-4-oxo-4H-pyrido[1,2-a]pyrimidin-9-yl)ethyl)amino)benzoic acid] | 1180 | > 10 | – | – |
| Cc1cc([C@@H](C)Nc2ccccc2C(=O)O)c2nc(N3C[C@H]4CC[C@@H]3C4)c(C#N)c(=O)n2c1 [Example 11-294, 2-(((R)-1-(2-((1R,4S)-2-azabicyclo[2.2.1]heptan-2-yl)-3-cyano-7-methyl-4-oxo-4H-pyrido[1,2-a]pyrimidin-9-yl)ethyl)amino)benzoic acid] | 170 | > 10 | – | – |
| Cc1cc([C@@H](C)Nc2ccccc2C(=O)O)c2nc(NC[C@H]3CC3(F)F)c(C#N)c(=O)n2c1 [Example 11-156, 2-(((R)-1-(3-cyano-2-((((R)-2,2-difluorocyclopropyl)methyl)amino)-7-methyl-4-oxo-4H-pyrido[1,2-a]pyrimidin-9-yl)ethyl)amino)benzoic acid] | 174 | > 10 | – | – |
| Cc1cc(C(C)Nc2ccc(F)cc2C(=O)O)c2nc(N3Cc4ccccc4C3)c(C)c(=O)n2c1 (stereo not shown) [Example 11-367, 5-fluoro-2-((1-(2-(isoindolin-2-yl)-3,7-dimethyl-4-oxo-4H-pyrido[1,2-a]pyrimidin-9-yl)ethyl)amino)benzoic acid] | 600 | > 10 | – | – |
| Cc1cc([C@@H](C)Nc2ccccc2C(=O)O)c2nc(N3CC[C@@H]3CF)c(C)c(=O)n2c1 [Example 11-95, 2-(((R)-1-(2-((R)-2-(fluoromethyl)azetidin-1-yl)-3,7-dimethyl-4-oxo-4H-pyrido[1,2-a]pyrimidin-9-yl)ethyl)amino)benzoic acid] | 198 | > 10 | – | – |
| Cc1cc([C@@H](C)Nc2ccc(F)nc2C(=O)O)c2nc(N3CCC(F)(F)CC3)c(C)c(=O)n2c1 [Example 11-45, (R)-3-((1-(2-(4,4-difluoropiperidin-1-yl)-3,7-dimethyl-4-oxo-4H-pyrido[1,2-a]pyrimidin-9-yl)ethyl)amino)-6-fluoropicolinic acid] | – | – | 2970 | > 10 |
| Cc1cc(C(C)Nc2ccccc2C(=O)O)c2nc(N(C)C)cc(=O)n2c1 (stereo not shown) [Example 11-408, 2-((1-(2-(dimethylamino)-7-methyl-4-oxo-4H-pyrido[1,2-a]pyrimidin-9-yl)ethyl)amino)benzoic acid] | > 10000 | > 10 | – | – |
| C[C@@H](Nc1ccccc1C(=O)O)c1cc(C#N)cn2c(=O)cc(N3CCC(F)(F)CC3)nc12 [Example 11-418, (R)-2-((1-(7-cyano-2-(4,4-difluoropiperidin-1-yl)-4-oxo-4H-pyrido[1,2-a]pyrimidin-9-yl)ethyl)amino)benzoic acid] | > 10000 | > 10 | – | – |
| Cc1cc([C@@H](C)Nc2ccccc2C(=O)O)c2nc(N3CCC(N4CCCCC4=O)CC3)c(C)c(=O)n2c1 [Example 10-3, (R)-2-((1-(3,7-dimethyl-4-oxo-2-(2-oxo-[1,4′-bipiperidin]-1′-yl)-4H-pyrido[1,2-a]pyrimidin-9-yl)ethyl)amino)benzoic acid] | 8.12 | > 10 | – | – |
| Cc1cc([C@@H](C)Nc2ccccc2C(=O)O)c2nc(N3CCn4cncc4C3)c(C)c(=O)n2c1 [Example 11-430, (R)-2-((1-(2-(5,6-dihydroimidazo[1,5-a]pyrazin-7(8H)-yl)-3,7-dimethyl-4-oxo-4H-pyrido[1,2-a]pyrimidin-9-yl)ethyl)amino)benzoic acid] | 4670 | > 10 | – | – |
| Cc1cc([C@@H](C)Nc2ccccc2C(=O)O)c2nc(NCC3CC(F)(F)C3)c(C#N)c(=O)n2c1 [Example 11-198, (R)-2-((1-(3-cyano-2-(((3,3-difluorocyclobutyl)methyl)amino)-7-methyl-4-oxo-4H-pyrido[1,2-a]pyrimidin-9-yl)ethyl)amino)benzoic acid] | 232 | > 10 | – | – |
| Cc1cc([C@@H](C)Nc2ccccc2C(=O)O)c2nc(N3CCC4(CC3)CC4)c(C)c(=O)n2c1 [Example 11-221, (R)-2-((1-(3,7-dimethyl-4-oxo-2-(6-azaspiro[2.5]octan-6-yl)-4H-pyrido[1,2-a]pyrimidin-9-yl)ethyl)amino)benzoic acid] | 255 | > 10 | – | – |
| Cc1cc([C@@H](C)Nc2ccc(Cl)c(F)c2C(=O)O)c2nc(N3CCC(F)(F)CC3)c(C#N)c(=O)n2c1 [Example 11-89, (R)-3-chloro-6-((1-(3-cyano-2-(4,4-difluoropiperidin-1-yl)-7-methyl-4-oxo-4H-pyrido[1,2-a]pyrimidin-9-yl)ethyl)amino)-2-fluorobenzoic acid] | 3150 | > 10 | – | – |
| Cc1cc([C@H](C)Nc2ccccc2C(=O)O)c2nc([C@@H]3CCN(C)C(=O)C3)cc(=O)n2c1 [Example 11-375, 2-(((S)-1-(7-methyl-2-((R)-1-methyl-2-oxopiperidin-4-yl)-4-oxo-4H-pyrido[1,2-a]pyrimidin-9-yl)ethyl)amino)benzoic acid] | > 10000 | > 10 | – | – |

Now from value to compound:

| IC50 ([1]; Homo sapiens, T47D, 72 h) [nM] | IC50 ([2]; Homo sapiens, SK-BR-3, 72 h) [µM] | IC50 [1] [nM] | IC50 [2] [µM] | Compound |
| --- | --- | --- | --- | --- |
| 309 | > 10 | – | – | Cc1cc([C@@H](C)Nc2ccccc2C(=O)O)c2nc(N3CC[C@H]3C(F)(F)F)c(C)c(=O)n2c1 [Example 11-97, 2-(((R)-1-(3,7-dimethyl-4-oxo-2-((S)-2-(trifluoromethyl)azetidin-1-yl)-4H-pyrido[1,2-a]pyrimidin-9-yl)ethyl)amino)benzoic acid] |
| > 10000 | > 10 | – | – | Cc1cc([C@@H](C)Nc2ccccc2C(=O)O)c2nc(C3CCN(C)CC3)c(C)c(=O)n2c1 [Example 11-149, (R)-2-((1-(3,7-dimethyl-2-(1-methylpiperidin-4-yl)-4-oxo-4H-pyrido[1,2-a]pyrimidin-9-yl)ethyl)amino)benzoic acid] |
| 69.5 | > 10 | – | – | Cc1cc([C@@H](C)Nc2ccccc2C(=O)O)c2nc(N3Cc4ccc(CO)cc4C3)c(C)c(=O)n2c1 [Example 10-137, (R)-2-((1-(2-(5-(hydroxymethyl)isoindolin-2-yl)-3,7-dimethyl-4-oxo-4H-pyrido[1,2-a]pyrimidin-9-yl)ethyl)amino)benzoic acid] |
| 5420 | > 10 | – | – | Cc1cc(C(C)Nc2cc(F)ccc2C(=O)O)c2nc(N3Cc4ccccc4C3)c(C)c(=O)n2c1 (stereo not shown) [Example 11-364, 4-fluoro-2-((1-(2-(isoindolin-2-yl)-3,7-dimethyl-4-oxo-4H-pyrido[1,2-a]pyrimidin-9-yl)ethyl)amino)benzoic acid] |
| 439 | > 10 | – | – | Cc1cc([C@@H](C)Nc2ccccc2C(=O)O)c2nc(N3CCC[C@@H](C(F)(F)F)C3)c(C#N)c(=O)n2c1 [Example 11-209, 2-(((R)-1-(3-cyano-7-methyl-4-oxo-2-((R)-3-(trifluoromethyl)piperidin-1-yl)-4H-pyrido[1,2-a]pyrimidin-9-yl)ethyl)amino)benzoic acid] |
| > 10000 | > 10 | – | – | Cc1cc(C(C)Nc2ccccc2C(=O)O)c2nc(SC3CCOC3)cc(=O)n2c1 (stereo not shown) [Example 11-370, 2-((1-(7-methyl-4-oxo-2-((tetrahydrofuran-3-yl)thio)-4H-pyrido[1,2-a]pyrimidin-9-yl)ethyl)amino)benzoic acid] |
| 383 | > 10 | – | – | Cc1cc([C@@H](C)Nc2ccccc2C(=O)O)c2nc(NC[C@@H]3CCOC3)c(C)c(=O)n2c1 [Example 11-195, 2-(((R)-1-(3,7-dimethyl-4-oxo-2-((((S)-tetrahydrofuran-3-yl)methyl)amino)-4H-pyrido[1,2-a]pyrimidin-9-yl)ethyl)amino)benzoic acid] |
| > 10000 | > 10 | – | – | Cc1cc([C@@H](C)Nc2ccncc2C(=O)O)c2nc(N3Cc4ccccc4C3)c(C#N)c(=O)n2c1 [Example 11-274, (R)-4-((1-(3-cyano-2-(isoindolin-2-yl)-7-methyl-4-oxo-4H-pyrido[1,2-a]pyrimidin-9-yl)ethyl)amino)nicotinic acid] |
| 227 | > 10 | – | – | Cc1c(N2CCC(F)(F)CC2)nc2c([C@@H](C)Nc3ccccc3C(=O)O)cc(C(F)F)cn2c1=O [Example 11-171, (R)-2-((1-(7-(difluoromethyl)-2-(4,4-difluoropiperidin-1-yl)-3-methyl-4-oxo-4H-pyrido[1,2-a]pyrimidin-9-yl)ethyl)amino)benzoic acid] |
| 43.2 | > 10 | – | – | Cc1cc([C@@H](C)Nc2ccccc2C(=O)O)c2nc(N3Cc4ccc(C(F)F)cc4C3)c(C)c(=O)n2c1 [Example 10-128, (R)-2-((1-(2-(5-(difluoromethyl)isoindolin-2-yl)-3,7-dimethyl-4-oxo-4H-pyrido[1,2-a]pyrimidin-9-yl)ethyl)amino)benzoic acid] |
| 370 | > 10 | – | – | Cc1cc([C@@H](C)Nc2ccccc2C(=O)O)c2nc(N3CCN(c4cn(C)nc4C#N)CC3)c(C#N)c(=O)n2c1 [Example 11-184, (R)-2-((1-(3-cyano-2-(4-(3-cyano-1-methyl-1H-pyrazol-4-yl)piperazin-1-yl)-7-methyl-4-oxo-4H-pyrido[1,2-a]pyrimidin-9-yl)ethyl)amino)benzoic acid] |
